The term EC50 denotes the concentration that produces a half-maximal response. Usually CC50 stands for the concentration giving 50% cytotoxicity. Low values mean harm at low concentration, high ones better tolerance by the cells.

Structures are written as SMILES. Where two headings read alike, the source gives them in different places.

The source of these data is US20230107941A1, “HEPATITIS B CAPSID ASSEMBLY MODULATORS” (Venatorx Pharmaceuticals, Inc., priority 2019, published 2023).

One data set deals with HBV. Description: In vitro antiviral assay: anti-HBV replication in HepAD38 cells (extracellular HBV DNA by QPCR). It is filed as cell-based, hepatitis B virus (genotype D, serotype ayw). The following applies: 7 days incubation, extracellular HBV DNA by QPCR, read-out: Anti-HBV EC50. A digest of the protocol: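 HepG2-derived HepAD38 cells (HBV genotype D, ayw, tet-repressible CMV) induced by tetracycline withdrawal, treated 7 days at 37 °C with compound (1 μM to 10 pM, 10-fold steps). Supernatant HBV DNA quantified by QPCR against standard curve, percent of DMSO control; EC50 by 4-parameter fit; entecavir positive control.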

The nature of data set [1]: In vitro cytotoxicity assay (MTT cell viability) in HepG2 cells. Type of data set: cell-based, human. The settings on record: human. In outline: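 CC50 was derived by 4-parameter fit of viability relative to vehicle controls, measured as MTT formazan absorbance at 492 nm after 3–4 h of reagent and DMSO solubilization. Before that, HepG2 cells seeded overnight at 20,000/well were incubated 7 days at 37°C with compound from 30 μM down to 1.0 nM in half-log steps.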

Setting [2] is: Hepatitis B virus, HePAD38, 168 h.

As to `Cc1cc(NC(=O)c2c(C)c(C(=O)C(=O)N[C@H]3CC[C@@H](O)CC3)n(C)c2C2CCCCC2)ccc1F` [Example 119, 2-cyclohexyl-N-(4-fluoro-3-methylphenyl)-5-(2-(((1s,4s)-4-hydroxycyclohexyl)amino)-2-oxoacetyl)-1,4-dimethyl-1H-pyrrole-3-carboxamide], the EC50 in the data set with HBV (setting [2]) lay in the range of 500 to 1000 nM. Besides, in data set [1], the cytotoxic concentration (CC50) at 7 days was 5000 to 30000 nM.
Consider `CC(=O)N1CC[C@H](NC(=O)C(=O)c2c(C)c(C(=O)Nc3ccc(F)c(C)c3)c(C)n2C)C[C@H]1C` [Example 78, 5-(2-(((2R,4S)-1-acetyl-2-methylpiperidin-4-yl)amino)-2-oxoacetyl)-N-(4-fluoro-3-methylphenyl)-1,2,4-trimethyl-1H-pyrrole-3-carboxamide], for which the EC50 in the data set with HBV (setting [2]) was under 50 nM. In data set [1], the CC50 at 7 days is over 30000 nM.
For `Cc1csc(C2(NC(=O)c3c(C)c(C(=O)C(=O)NC(C)(C)C)n(C)c3C)CCCC2)n1` [Example 47, 5-(2-(tert-butylamino)-2-oxoacetyl)-1,2,4-trimethyl-N-(1-(4-methylthiazol-2-yl)cyclopentyl)-1H-pyrrole-3-carboxamide], in the data set with HBV (setting [2]), the EC50 was over 1000 nM. The same compound came in with a CC50 at 7 days in data set [1] of over 30000 nM.
The matching figures for `Cc1cc(NC(=O)c2c(C)c(C(=O)C(=O)N[C@]3(C)C[C@H](O)C3)n(C)c2C(C)C)ccc1F` [Example 109, N-(4-fluoro-3-methylphenyl)-5-(2-(((1s,3s)-3-hydroxy-1-methylcyclobutyl)amino)-2-oxoacetyl)-2-isopropyl-1,4-dimethyl-1H-pyrrole-3-carboxamide]: 50 to 499 nM and over 30000 nM.
Taken in the same sequence, the figures for `Cc1cc(NC(=O)c2c(C)c(C(=O)C(=O)NCC(C)(C)O)n(C)c2-c2ccncc2)ccc1F` [Example 164, N-(4-fluoro-3-methylphenyl)-5-(2-((2-hydroxy-2-methylpropyl)amino)-2-oxoacetyl)-1,4-dimethyl-2-(pyridin-4-yl)-1H-pyrrole-3-carboxamide] were over 1000 nM and over 30000 nM.
`CCN(C(=O)C(=O)c1c(C)c(C(=O)Nc2ccc(F)c(C)c2)c(C)n1C)C(C)C` [Example 186, 5-(2-(ethyl(isopropyl)amino)-2-oxoacetyl)-N-(4-fluoro-3-methylphenyl)-1,2,4-trimethyl-1H-pyrrole-3-carboxamide]: the EC50 with HBV (setting [2]) lay within 500 to 1000 nM. Besides, the CC50 at 7 days in data set [1] was over 30000 nM.
Take `Cc1c(C(=O)Nc2ccc(F)c(C(N)=O)c2)c(C)n(C)c1C(=O)C(=O)NC(C)(C)C` [Example 57, 5-(2-(tert-butylamino)-2-oxoacetyl)-N-(3-carbamoyl-4-fluorophenyl)-1,2,4-trimethyl-1H-pyrrole-3-carboxamide]: the EC50 in the data set with HBV (setting [2]) is over 1000 nM. The compound further came in with a CC50 at 7 days in data set [1] of over 30000 nM.
On to `Cc1cc(Cl)cc(NC(=O)c2c(C)c(C(=O)C(=O)N[C@]3(C)CC[C@@H](O)CC3)n(C)c2C)c1` [Example 169, N-(3-chloro-5-methylphenyl)-5-(2-(((1r,4r)-4-hydroxy-1-methylcyclohexyl)amino)-2-oxoacetyl)-1,2,4-trimethyl-1H-pyrrole-3-carboxamide], for which, in the data set on HBV (setting [2]), the EC50 is under 50 nM. The CC50 at 7 days in data set [1] lay in the range of 5000 to 30000 nM.
Regarding `Cc1cc(NC(=O)c2c(C)c(C(=O)C(=O)N[C@@H]3CCN[C@H](C(=O)O)C3)n(C)c2C)ccc1F` [Example 180, (2S,4R)-4-(2-(4-((4-fluoro-3-methylphenyl)carbamoyl)-1,3,5-trimethyl-1H-pyrrol-2-yl)-2-oxoacetamido)piperidine-2-carboxylic acid], in the data set with HBV (setting [2]), the EC50 was over 1000 nM. Also, the CC50 at 7 days in data set [1] was over 30000 nM.
With `Cc1cc(NC(=O)c2c(C)c(C(=O)C(=O)N[C@@H]3CC[C@@H](O)CC3(C)C)n(C)c2C)ccc1F` (single isomer, unassigned) [Example 143], the half-maximal effective concentration (EC50) in the data set on HBV (setting [2]) was under 50 nM. Moreover, the CC50 at 7 days in data set [1] is over 30000 nM.
Taken in the same sequence, the figures for `CCc1c(C(=O)Nc2ccc(F)c(C)c2)c(C)c(C(=O)C(=O)N[C@H]2CC[C@@H](S(C)(=O)=O)CC2)n1C` [Example 106, 2-ethyl-N-(4-fluoro-3-methylphenyl)-1,4-dimethyl-5-(2-(((1s,4s)-4-(methylsulfonyl)cyclohexyl)amino)-2-oxoacetyl)-1H-pyrrole-3-carboxamide] were under 50 nM and over 30000 nM.
Take `Cc1cccc(NC(=O)c2c(C)c(C(=O)C(=O)NC(C)(C)C)n(C)c2C)c1F` [Example 66, 5-(2-(tert-butylamino)-2-oxoacetyl)-N-(2-fluoro-3-methylphenyl)-1,2,4-trimethyl-1H-pyrrole-3-carboxamide]: in the data set with HBV (setting [2]), the EC50 is under 50 nM. Also, in data set [1], the CC50 at 7 days was over 30000 nM.
In the case of `Cc1cc(NC(=O)c2c(C)c(C(=O)C(=O)NC3(C)CC(OP(=O)(O)O)C3)n(C)c2C)ccc1F` (stereo not drawn) [Example 63, (1s,3s)-3-(2-(4-((4-fluoro-3-methylphenyl)carbamoyl)-1,3,5-trimethyl-1H-pyrrol-2-yl)-2-oxoacetamido)-3-methylcyclobutyl dihydrogen phosphate], in the data set on HBV, the EC50 was over 1000 nM. The compound also registered a CC50 at 7 days in data set [1] of over 30000 nM.
As for `Cc1cc(NC(=O)c2c(C)c(C(=O)C(=O)N[C@@H]3CC[C@H](O)C[C@H]3F)n(C)c2C)ccc1F` [Example 15, N-(4-fluoro-3-methylphenyl)-5-(2-(((1R,2R,4S)-2-fluoro-4-hydroxycyclohexyl)amino)-2-oxoacetyl)-1,2,4-trimethyl-1H-pyrrole-3-carboxamide], the concentration for a half-maximal effect (EC50) with HBV (setting [2]) was under 50 nM. In addition, in data set [1], the CC50 at 7 days was over 30000 nM.
Taken in the same sequence, the figures for `Cc1cc(NC(=O)c2c(C)c(C(=O)C(=O)N[C@H]3CC[C@@H](O)CC3)n(C)c2-c2nccs2)ccc1F` [Example 177, N-(4-fluoro-3-methylphenyl)-5-(2-(((1s,4s)-4-hydroxycyclohexyl)amino)-2-oxoacetyl)-1,4-dimethyl-2-(thiazol-2-yl)-1H-pyrrole-3-carboxamide] were over 1000 nM and over 30000 nM.
As for `Cc1cc(NC(=O)c2c(C)c(C(=O)C(=O)N[C@H]3CC[C@@H](O)CC3)n(C)c2-c2ccsc2)ccc1F` [Example 184, N-(4-fluoro-3-methylphenyl)-5-(2-(((1s,4s)-4-hydroxycyclohexyl)amino)-2-oxoacetyl)-1,4-dimethyl-2-(thiophen-3-yl)-1H-pyrrole-3-carboxamide], the half-maximal effective concentration (EC50) in the data set on HBV (setting [2]) is over 1000 nM. The compound also yielded a CC50 at 7 days in data set [1] of 5000 to 30000 nM.
Taken in the same sequence, the figures for `Cc1cc(NC(=O)c2c(C)c(C(=O)C(=O)NC3(CO)CCN(C(=O)c4cn(C)nc4C(F)F)CC3)n(C)c2C)ccc1F` [Example 75, 5-(2-((1-(3-(difluoromethyl)-1-methyl-1H-pyrazole-4-carbonyl)-4-(hydroxymethyl)piperidin-4-yl)amino)-2-oxoacetyl)-N-(4-fluoro-3-methylphenyl)-1,2,4-trimethyl-1H-pyrrole-3-carboxamide] were under 50 nM and over 30000 nM.
Consider `CCc1c(C(=O)Nc2ccc(F)c(C)c2)c(C)n(C)c1C(=O)C(=O)N[C@H]1CC[C@@H](O)CC1` [Example 86, 4-ethyl-N-(4-fluoro-3-methylphenyl)-5-(2-(((1s,4s)-4-hydroxycyclohexyl)amino)-2-oxoacetyl)-1,2-dimethyl-1H-pyrrole-3-carboxamide], for which the EC50 with HBV (setting [2]) was under 50 nM. In data set [1], this compound yielded a CC50 at 7 days of over 30000 nM.
